Test results published in ChEMBL document CHEMBL1133258, “Synthesis and evaluation of quinoxalinones as HIV-1 reverse transcriptase inhibitors” (Bioorg Med Chem Lett, 2000).

Tests used:
[1] = biological target: Human immunodeficiency virus type 1 reverse transcriptase (Human immunodeficiency virus 1, UniProt Q72547); assay: Inhibitory concentration for 50% inhibition of HIV-1 reverse transcriptase
[2] = biological target: Human immunodeficiency virus type 1 reverse transcriptase (Human immunodeficiency virus 1) (UniProt Q72547)
Description: Inhibitory concentration for 90% inhibition of HIV-1 reverse transcriptase, whole cell based antiviral assay

| Compound | IC50 [1] | IC90 [2] |
| --- | --- | --- |
| CCOC(=O)N1c2ccccc2NC(=O)C1(C#CC1CC1)C(F)(F)F (stereo in doubt; 6m) [listing 1 of 2 here] | 118 nM | – |
| O=C1Nc2ccccc2N(CCC2CC2)C1(C#CC1CC1)C(F)(F)F (stereo unspecified) | 340 nM | 32 nM |
| CC(C)S(=O)(=O)N1c2ccccc2NC(=O)C1(C#CC1CC1)C(F)(F)F (stereo unspecified) | > 5000 nM | > 1000 nM |
| C=C(C)OC(=O)N1c2cc(Cl)ccc2NC(=O)C1(C#CC1CC1)C(F)(F)F (stereo unspecified) | 315 nM | 15 nM |
| COc1ccc2c(c1)N(CC1CC1)C(C#CC1CC1)(C(F)(F)F)C(=O)N2 (stereo unspecified) | 109 nM | 19 nM |
| C=CCN1c2cc(OC)ccc2NC(=O)C1(C#CC1CC1)C(F)(F)F (stereo unspecified) | 123 nM | 29 nM |
| CCOC(=O)N1c2ccccc2NC(=O)C1(C#CC1CC1)C(F)(F)F (stereo in doubt) [listing 1 of 2 here] | – | 4.8 nM |
| C=CCOC(=O)N1c2ccccc2NC(=O)C1(C#CC1CC1)C(F)(F)F (stereo unspecified) | 147 nM | 30 nM |
| O=C1Nc2ccccc2N(Cc2ccccc2)C1(C#CC1CC1)C(F)(F)F (stereo unspecified) | 1820 nM | 21 nM |
| C=CCN1c2cc(Cl)ccc2NC(=O)C1(C#CC1CC1)C(F)(F)F (stereo unspecified) | 650 nM | 85 nM |
| O=C1Nc2ccc(F)cc2N(CC2CC2)C1(C#CC1CC1)C(F)(F)F (stereo unspecified) | 263 nM | 23 nM |
| C=CCN1c2ccccc2NC(=O)C1(C#CC1CC1)C(F)(F)F (stereo unspecified) | 601 nM | 22 nM |
| CCOC(=O)N1c2ccccc2NC(=O)C1(C#CC1CC1)C(F)(F)F (stereo in doubt) [listing 2 of 2 here] | 45 nM | – |
| C=C(C)OC(=O)N1c2ccccc2NC(=O)C1(C#CC1CC1)C(F)(F)F (stereo unspecified) | 169 nM | 11 nM |
| CC(C)C(I)N1c2ccccc2NC(=O)C1(C#CC1CC1)C(F)(F)F (stereo unspecified) | 160 nM | 19 nM |
| CCCS(=O)(=O)N1c2ccccc2NC(=O)C1(C#CC1CC1)C(F)(F)F (stereo unspecified) | > 5000 nM | > 1000 nM |
| O=C1Nc2ccccc2N(CC2CC2)C1(C#CC1CC1)C(F)(F)F (stereo in doubt; 6z) [listing 1 of 2 here] | – | 11 nM |
| CC(C)OC(=O)N1c2ccccc2NC(=O)C1(C#CC1CC1)C(F)(F)F (stereo unspecified) | 108 nM | 15 nM |
| C#CCN1c2ccccc2NC(=O)C1(C#CC1CC1)C(F)(F)F (stereo unspecified) | 1810 nM | 53 nM |

| Compound | IC50 [1] | IC90 [2] |
| --- | --- | --- |
| CC(C)OC(=O)N1c2cc(F)ccc2NC(=O)C1(C#CC1CC1)C(F)(F)F (stereo unspecified) | 130 nM | 9 nM |
| CC(C)OC(=O)N1c2cc(Cl)ccc2NC(=O)C1(C#CC1CC1)C(F)(F)F (stereo unspecified) | 160 nM | 19 nM |
| CCOC(=O)N1c2cc(F)ccc2NC(=O)C1(C#CC1CC1)C(F)(F)F (stereo unspecified) | 121 nM | 8 nM |
| C=CCN1c2cc(F)ccc2NC(=O)C1(C#CC1CC1)C(F)(F)F (stereo unspecified) | 124 nM | 21 nM |
| CC(C)CN1c2cc(Cl)ccc2NC(=O)C1(C#CC1CC1)C(F)(F)F (stereo unspecified) | 404 nM | 52 nM |
| CCOC(=O)N1c2ccccc2NC(=O)C1(C#CC1CC1)C(F)(F)F (stereo in doubt; 6m) [listing 2 of 2 here] | – | 9 nM |
| O=C1Nc2ccc(Cl)cc2N(CC2CC2)C1(C#CC1CC1)C(F)(F)F (stereo unspecified) | 329 nM | 27 nM |
| C=C(C)OC(=O)N1c2cc(F)ccc2NC(=O)C1(C#CC1CC1)C(F)(F)F (stereo unspecified) | 183 nM | 8 nM |
| O=C1Nc2ccccc2N(CC2CC2)C1(C#CC1CC1)C(F)(F)F (stereo in doubt; 6a) [listing 1 of 2 here] | 253 nM | – |
| CC(C)COC(=O)N1c2ccccc2NC(=O)C1(C#CC1CC1)C(F)(F)F (stereo unspecified) | 1140 nM | 158 nM |
| O=C1Nc2ccccc2N(CC2CC2)C1(C#CC1CC1)C(F)(F)F (stereo in doubt; 6a) [listing 2 of 2 here] | – | 17 nM |
| O=C1Nc2ccccc2N(CC2CC2)C1(C#CC1CC1)C(F)(F)F (stereo in doubt; 6z) [listing 2 of 2 here] | 127 nM | – |
| CCS(=O)(=O)N1c2ccccc2NC(=O)C1(C#CC1CC1)C(F)(F)F (stereo unspecified) | > 5000 nM | > 1000 nM |
| O=C(c1ccccc1)N1c2ccccc2NC(=O)C1(C#CC1CC1)C(F)(F)F (stereo unspecified) | > 5000 nM | > 1000 nM |
| CCOC(=O)N1c2cc(Cl)ccc2NC(=O)C1(C#CC1CC1)C(F)(F)F (stereo unspecified) | 127 nM | 11 nM |
| CC[C@H]1C(=O)Nc2ccc(F)cc2N1C(=O)OC(C)C [OPAVIRALINE] | 179 nM | 11 nM |
| CCCCOC(=O)N1c2ccccc2NC(=O)C1(C#CC1CC1)C(F)(F)F (stereo unspecified) | 672 nM | 105 nM |
| COC(=O)N1c2ccccc2NC(=O)C1(C#CC1CC1)C(F)(F)F (stereo unspecified) | 504 nM | 44 nM |
